Tested on: H1 human embryonic stem cells
Experiment: Secondary assay: panel of compounds with growth factor combinations and muscimol, no activin A (Example 6, Table 5)
Format: cell-based
Conditions: no AA (with Wnt3a)
Experimental: Clusters of H1 human embryonic stem cells were grown on reduced growth factor […]™ (Invitrogen; Cat #356231)-coated tissue culture plastic. Cells were passaged using collagenase (Invitrogen; Cat #17104-019) treatment and gentle scraping, washed to remove residual enzyme, and plated with even dispersal at a ratio of 1:1 (surface area) on reduced growth factor […]™-coated 96-well black plates (Packard ViewPlates; PerkinElmer; Cat #6005182) using volumes of 100 μl/well. Cells were allowed to attach as clusters and then recover log phase growth over a 1 to 3 day period, feeding daily with MEF-conditioned medium supplemented with 8 ng/ml bFGF (R&D Systems; Cat #233-FB). Plates were maintained at 37° C., 5% CO2 in a humidified box throughout the duration of the assay. Stocks of growth factors purchased from R&D Systems were EGF (Cat #236-EG), FGF4 (Cat #235-F4), PDGF-A (Cat #221-AA), PDGF-D (Cat #1159-SB), PDGF-A/B (Cat #222-AB), and VEGF (Cat #293-VE). […] All growth factors were solubilized in PBS with 0.1% BSA (Sigma; Cat #A7888) and stored frozen at −80° C. […] Cat #D2650) and stored frozen at −80° C. Compounds were available as 5 mM stocks in 96-well plate format, solubilized in 100% DMSO and stored at −80° C. Compounds were further diluted to an intermediate concentration of 0.2 mM in 50 mM HEPES (Invitrogen; Cat #15630-080), 20% DMSO and stored at 4° C. All growth factors and inhibitors were prepared in a deep well, 96-well polypropylene plate, diluted to 5× intermediate stocks in DMEM:F12 base medium at the beginning of assay and stored at 4° C. A secondary screening assay was conducted, testing in triplicate and feeding on alternate days over the four-day assay timeframe. Assays were initiated by aspirating culture medium from each well followed by three washes in PBS to remove residual growth factors and serum. Test volumes of 80 μl per well were added back containing DMEM:F12 base medium (Invitrogen; Cat #11330-032) supplemented with 0.625% FCS (HyClone; […] All remaining growth factors were tested at a final assay concentration of 50 ng/ml (EGF, FGF4, PDGF-A, PDGF-A/B, VEGF). […] At the conclusion of four-days of culture, assay plates were washed twice with PBS, fixed with 4% paraformaldehyde (Alexis Biochemical; Cat #ALX-350-011) at room temperature for 20 minutes, then washed three times with PBS and permeabilized with 0.5% Triton X-100 (Sigma; Cat #T8760-2) for 20 minutes at room temperature. Cells were washed again three times with PBS and blocked with 4% chicken serum (Invitrogen; Cat #16110082) in PBS for 30 minutes at room temperature. Primary antibody (goat anti-human SOX17; R&D Systems; cat #AF1924) was diluted 1:100 in 4% chicken serum and added to each well for one hour at room temperature. Alexa Fluor 488 conjugated secondary antibody (chicken anti-goat IgG; Molecular Probes; Cat #AZ1467) was diluted 1:200 in PBS and added to each sample well after washing three times with PBS. To counterstain nuclei, 4 μg/ml Hoechst 33342 (Invitrogen; Cat #H3570) was added for ten minutes at room temperature. Plates were washed once with PBS and left in 100 μl/well PBS for imaging. Imaging was performed using an IN Cell Analyzer 1000 (GE Healthcare) utilizing the 51008bs dichroic for cells stained with Hoechst 33342 and Alexa Fluor 488. Exposure times were optimized from positive control wells and from untreated negative control wells stained with secondary antibody alone. Images from 15 fields per well were acquired to compensate for any cell loss during the bioassay and subsequent staining procedures. […] Segmentation for the nuclei was determined based on grayscale levels (baseline range 100-300) and nuclear size. Averages and standard deviations were calculated for each replicate data set. Total SOX17 protein expression was reported as total intensity or integrated intensity, defined as total fluorescence of the cell multiplied by the area of the cell. […]

[1] = EGF + FGF4 + PDGF-AB + Muscimol

Row | SMILES | Cell Number, % of positive control (EGF) [%] | Cell Number, Average Total Cell Number (EGF) | Sox17 Expression, % of positive control (EGF) [%] | Sox17 Expression, Average Total Intensity (EGF) | Cell Number, % of positive control (EGF + FGF4) [%] | Cell Number, Average Total Cell Number (EGF + FGF4) | Sox17 Expression, % of positive control (EGF + FGF4) [%] | Sox17 Expression, Average Total Intensity (EGF + FGF4) | Cell Number, % of positive control (EGF + FGF4 + PDGF-A + Muscimol) [%] | Cell Number, Average Total Cell Number (EGF + FGF4 + PDGF-A + Muscimol) | Sox17 Expression, % of positive control (EGF + FGF4 + PDGF-A + Muscimol) [%] | Sox17 Expression, Average Total Intensity (EGF + FGF4 + PDGF-A + Muscimol) | Cell Number, % of positive control (EGF + FGF4 + PDGF-A + VEGF) [%] | Cell Number, Average Total Cell Number (EGF + FGF4 + PDGF-A + VEGF) | Sox17 Expression, % of positive control (EGF + FGF4 + PDGF-A + VEGF) [%] | Sox17 Expression, Average Total Intensity (EGF + FGF4 + PDGF-A + VEGF) | Cell Number, % of positive control (EGF + FGF4 + PDGF-AB) [%] | Cell Number, Average Total Cell Number (EGF + FGF4 + PDGF-AB) | Sox17 Expression, % of positive control (EGF + FGF4 + PDGF-AB) [%] | Sox17 Expression, Average Total Intensity (EGF + FGF4 + PDGF-AB) | also measured
1 | O=C1NCCCc2cncc(c2)-c2ncnc(n2)Nc2cc(Cl)cc(c2)CN2CCCC1C2 (stereo not drawn) [Compound 37, 10-Chloro-3,5,7,14,20,26,31-heptaazapentacyclo[22.3.1.1˜2,6˜0.1˜8,12˜0.1˜14,18˜]hentriaconta-1(28), 2(31), 3,5,8(30), 9,11,24,26-nonaen-19-one] | 76.17 | 7966 | −7.42 | −1.19E+07 | 66.28 | 6932 | −2.89 | −4.62E+06 | 55.66 | 5821 | −7.64 | −1.22E+07 | 83.93 | 8778 | 0.09 | 1.39E+05 | 71.46 | 7473 | −1.63 | −2.61E+06 | Cell Number, % of positive control [1]: 75.67%; Cell Number, Average Total Cell Number [1]: 7914; Sox17 Expression, % of positive control [1]: −1.20%; Sox17 Expression, Average Total Intensity [1]: −1.91E+06; Cell Number, % of positive control (EGF + PDGF-A + VEGF): 123.88%; Cell Number, Average Total Cell Number (EGF + PDGF-A + VEGF): 12956; Sox17 Expression, % of positive control (EGF + PDGF-A + VEGF): −7.82%; Sox17 Expression, Average Total Intensity (EGF + PDGF-A + VEGF): −1.25E+07; Cell Number, % of positive control (FGF4 + PDGF-A + VEGF): 64.36%; Cell Number, Average Total Cell Number (FGF4 + PDGF-A + VEGF): 6731; Sox17 Expression, % of positive control (FGF4 + PDGF-A + VEGF): −6.89%; Sox17 Expression, Average Total Intensity (FGF4 + PDGF-A + VEGF): −1.10E+07
2 | O=C1NCCCc2cncc(c2)-c2ncnc(n2)Nc2cccc(c2)CN2CCCC1C2 (stereo not drawn) [Compound 17, 3,5,7,14,20,26,31-Heptaazapentacyclo[22.3.1.1-2,6˜1˜8,12˜1˜14,18˜]hentriaconta-1(28), 2(31), 3,5,8(30), 9,11,24,26-nonaen-19-one] | 73.43 | 6942 | 0.74 | 1.27E+06 | 60.69 | 5738 | 1.83 | 3.14E+06 | 144.37 | 13649 | 8.43 | 1.45E+07 | 110.85 | 10480 | 5.23 | 8.97E+06 | 47.10 | 4453 | 0.54 | 9.30E+05 | Cell Number, % of positive control [1]: 109.91%; Cell Number, Average Total Cell Number [1]: 10391; Sox17 Expression, % of positive control [1]: 5.20%; Sox17 Expression, Average Total Intensity [1]: 8.92E+06; Cell Number, % of positive control (EGF + PDGF-A + VEGF): 60.59%; Cell Number, Average Total Cell Number (EGF + PDGF-A + VEGF): 5728; Sox17 Expression, % of positive control (EGF + PDGF-A + VEGF): 1.24%; Sox17 Expression, Average Total Intensity (EGF + PDGF-A + VEGF): 2.14E+06; Cell Number, % of positive control (FGF4 + PDGF-A + VEGF): 139.59%; Cell Number, Average Total Cell Number (FGF4 + PDGF-A + VEGF): 13198; Sox17 Expression, % of positive control (FGF4 + PDGF-A + VEGF): 7.54%; Sox17 Expression, Average Total Intensity (FGF4 + PDGF-A + VEGF): 1.29E+07
3 | O=C1NCCCc2cncc(c2)-c2ncnc(n2)Nc2cccc(c2)CN2CCC1CC2 [Compound 22, 1,8,10,12,16,22,30-Heptaazapentacyclo[22.2.2.1-3,7˜0.1˜9,13˜1-14,18˜]hentriaconta-3(31), 4,6,9(30), 10,12,14(29), 15,17-nonaen-23-one] | 149.19 | 14105 | 1.02 | 1.75E+06 | 137.19 | 12971 | 6.05 | 1.04E+07 | 122.80 | 11610 | 7.77 | 1.33E+07 | 132.44 | 12522 | 4.59 | 7.88E+06 | 175.36 | 16580 | 5.01 | 8.60E+06 | Cell Number, % of positive control [1]: 155.23%; Cell Number, Average Total Cell Number [1]: 14676; Sox17 Expression, % of positive control [1]: 3.27%; Sox17 Expression, Average Total Intensity [1]: 5.61E+06; Cell Number, % of positive control (EGF + PDGF-A + VEGF): 215.48%; Cell Number, Average Total Cell Number (EGF + PDGF-A + VEGF): 20372; Sox17 Expression, % of positive control (EGF + PDGF-A + VEGF): 2.91%; Sox17 Expression, Average Total Intensity (EGF + PDGF-A + VEGF): 4.99E+06; Cell Number, % of positive control (FGF4 + PDGF-A + VEGF): 129.85%; Cell Number, Average Total Cell Number (FGF4 + PDGF-A + VEGF): 12277; Sox17 Expression, % of positive control (FGF4 + PDGF-A + VEGF): 2.86%; Sox17 Expression, Average Total Intensity (FGF4 + PDGF-A + VEGF): 4.90E+06
